Consider five compounds from PMC3048538, “Differences in the mannose oligomer specificities of the closely related lectins from Galanthus nivalis and Zea mays strongly determine their eventual anti-HIV activity” (Retrovirology, 2011).

One test addresses immobilized GNAmaize. Kind of test: SPR steady-state affinity of oligosaccharides with immobilized GNAmaize. The arrangement: species or system Zea mays. To be noted: apparent, N.D. = not detectable, binding detected = KD could not be determined. The procedure:
(§1) The experimental data were fit using the steady-state affinity model (Biacore T100 Evaluation software 2.0.2) to determine the apparent KD-values.
(§2) The apparent KD was calculated by steady-state affinity analysis (Table 6).

For a further test, the target named is immobilized GNA (Galanthus nivalis, UniProt P30617). Nature of the test: SPR steady-state affinity of oligosaccharides with immobilized GNA. As to conditions: apparent, N.D. = not detectable, no binding curves. The procedure:
as §1, §2

Test [1] relates to HIV-1 UG273 (clade A, R5). Nature of the test: p24 production in HIV-infected PBMC, clinical isolate UG273. The test is classed as cell-based. To be noted: inhibit p24 production of HIV-infected PBMC. The procedure: (§3) Buffy coat preparations from healthy donors were obtained from the Blood Bank in Leuven. Peripheral blood mononuclear cells (PBMC) were isolated by density gradient centrifugation over Lymphoprep (density = 1.077 g/ml; Nycomed, Oslo, Norway). The PBMC were transferred to RPMI 1640 medium supplemented with 10% fetal calf serum (BioWhittaker Europe) and 2 mM L-glutamine and then stimulated for 3 days with phytohemagglutinin (PHA; Murex Biotech Limited, Dartford, United Kingdom) at 2 μg/ml. […] Supernatant was collected at days 8 to 10, and HIV-1 core antigen in the culture supernatant was analyzed by the p24 core antigen enzyme-linked immunosorbent assay (ELISA; DuPont-Merck Pharmaceutical Co., Wilmington, Del.).

Test [2] has as its system transmission of DC-SIGN-captured HIV-1(IIIB) to CD4+ T-lymphocyte C8166 cells. Nature of the test: Transmission of DC-SIGN-captured HIV-1(IIIB) to C8166 cells (syncytia formation). The test is classed as cell-based. To be noted: transmission of DC-SIGN-captured virions to CD4+ T cells (C8166). The procedure: (§4) The experiment was performed as described previously. Briefly, B-lymphocyte DC-SIGN-expressing (Raji/DC-SIGN) cells were suspended in cell culture medium at 2 × 10^6 cells/ml. 100 μl of HIV-1(IIIB) (~250,000 pg p24) were added in the presence of 400 μl of serial dilutions of the test compounds. After 60 minutes of incubation, the cells were carefully washed 3 times to remove unbound virions and resuspended in 1 ml of cell culture medium. The captured HIV-1(IIIB) was quantified by a p24 Ag ELISA. From the Raji/DC-SIGN cell suspension, 200 μl were also added to the wells of a 48-well microtiter plate in the presence of 800 μl uninfected C8166 cells (2.5 × 10^5 cells/ml). These cocultures were further incubated at 37°C, and syncytia formation was evaluated microscopically after ~ 18 to 42 h, and viral p24 Ag determination in the culture supernatants was performed.
(§5) One hour later, free virus particles and the test compounds were carefully removed from the cell cultures by several washing steps.

In test [3] the test system is HIV-1 DJ259 (clade C, R5). Nature of the test: p24 production in HIV-infected PBMC, clinical isolate DJ259. The class given is cell-based. As to conditions: inhibit p24 production of HIV-infected PBMC. The procedure:
as §3

Test [4] relates to DC-SIGN-mediated capture of HIV-1(IIIB) by Raji/DC-SIGN cells. Kind of test: Capture of HIV-1(IIIB) by Raji/DC-SIGN cells (p24 Ag ELISA). The test is classed as cell-based. As to conditions: HIV-1(IIIB) capture by Raji/DC-SIGN cells. The procedure: as §4, §5
The next test has as its system HIV-1(IIIB). Nature of the test: Antiretrovirus assay, HIV-1(IIIB)-induced cytopathicity (syncytium formation) in CEM cell cultures. The test is classed as cell-based. To be noted: inhibit virus-induced cytopathicity in CEM cell cultures by 50%. The procedure:
(§6) CEM cells (5 × 10^5 cells per ml) were suspended in fresh culture medium and infected with HIV-1 and HIV-2 at 100 times the CCID50 (50% cell culture infective doses) per ml of cell suspension, of which 100 μl was mixed with 100 μl of the appropriate dilutions of the test compounds, and further incubated at 37°C. After 4 to 5 days, syncytia formation was recorded microscopically in the cell cultures. The 50% effective concentration (EC50) corresponds to the compound concentration required to prevent syncytium formation by 50% in the virus-infected CEM cell cultures.

In a further test the test system is HIV-1(BaL) (Clade B). Nature of the test: p24 production in HIV-infected PBMC, BaL. The class given is cell-based. As to conditions: inhibit p24 production of HIV-infected PBMC. The procedure: as §3
In test [5] the test system is HIV-1 ID12 (clade A/E, R5). Nature of the test: p24 production in HIV-infected PBMC, clinical isolate ID12. The test is classed as cell-based. To be noted: inhibit p24 production of HIV-infected PBMC. The procedure: as §3
For another test, the system named is HIV-2(ROD). Nature of the test: Antiretrovirus assay, HIV-2(ROD)-induced cytopathicity (syncytium formation) in CEM cell cultures. The class given is cell-based. To be noted: inhibit virus-induced cytopathicity in CEM cell cultures by 50%. The procedure: as §6
For orientation: Damage to the host cells serves as the signal in cytopathic effect assays.

Test [6] deals with syncytia formation between HuT-78/HIV-1 and Sup-T1 cells. Nature of the test: Co-cultivation assay between Sup-T1 and persistently HIV-1-infected HuT-78 cells (syncytia formation). The class given is cell-based, Human. As to conditions: inhibit syncytia formation between HuT-78/HIV-1 and Sup-T1 cells by 50%. The procedure: Persistently HIV-1(IIIB)-infected HuT-78 cells (designated HuT-78/HIV-1) were washed to remove cell-free virus from the culture medium, and 5 × 10^4 cells (50 μl) were transferred to 96-well microtiter plates. Next, a similar amount of Sup-T1 cells (50 μl) and appropriate concentrations of test compound (100 μl), were added to each well.

Entries after “also recorded” stand apart in the source; their conditions may differ.

Chain of immobilized GNA (P30617 24-128): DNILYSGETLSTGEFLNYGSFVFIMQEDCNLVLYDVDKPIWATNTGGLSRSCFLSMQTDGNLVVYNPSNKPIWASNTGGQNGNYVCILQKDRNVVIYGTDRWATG

As to `OC[C@H]1O[C@H](O[C@@H]2[C@@H](O[C@@H]3C(O)O[C@H](CO)[C@@H](O)[C@@H]3O)O[C@H](CO)[C@@H](O)[C@@H]2O)[C@@H](O)[C@@H](O)[C@@H]1O` (stereo partly drawn) [(α1,2-man)3], the “KD, immobilized GNAmaize” value at immobilized GNAmaize is “did not bind”. Moreover, the Kd at immobilized GNA was greater than 1000 µM.

In the case of `OC[C@H]1O[C@H](O[C@H]2[C@H](O)[C@@H](CO)OC(O)[C@H]2O)[C@@H](O)[C@@H](O)[C@@H]1O` (stereo partly drawn) [(α1,3-man)2], at immobilized GNAmaize, the “KD, immobilized GNAmaize” value is recorded as “did not bind”. On immobilized GNA, the “KD, immobilized GNA” value was “preferentially bind” and the Kd is greater than 2000 µM.

In the case of `CC(=O)N[C@H]1[C@H](O[C@@H]2C(O)O[C@H](CO)[C@@H](O)[C@@H]2O)O[C@H](CO)[C@@H](O)[C@@H]1O` (some centres unmarked) [GlcNAcβ1,2Man, GlcNAcß1,2Man], the “KD, immobilized GNAmaize” value is listed as “binding detected^b” on immobilized GNAmaize and “able to measurably bind” at immobilized GNAmaize (listed as GlcNAcß1,2Man). Also, the “KD, immobilized GNA” value at immobilized GNA is on record as “didn't bind; also recorded: not to GNA”.

As to `CC(=O)N[C@H]1[C@H](O[C@H]2[C@H](O)[C@@H](NC(C)=O)C(O)O[C@@H]2CO)O[C@H](CO)[C@@H](O[C@@H]2O[C@H](CO[C@H]3O[C@H](CO)[C@@H](O)[C@H](O)[C@@H]3O[C@@H]3O[C@H](CO)[C@@H](O)[C@H](O)[C@H]3NC(C)=O)[C@@H](O)[C@H](O[C@H]3O[C@H](CO)[C@@H](O)[C@H](O)[C@@H]3O[C@@H]3O[C@H](CO)[C@@H](O)[C@H](O)[C@H]3NC(C)=O)[C@@H]2O)[C@@H]1O` (some centres unmarked) [GlcNAcβ1,2Manα1,3(GlcNAcβ1,2Manα1,6)Manβ1,4GlcNAcβ1,4GlcNAc], the “KD, immobilized GNAmaize” value at immobilized GNAmaize was “binding detected^b”; at immobilized GNAmaize (listed as GlcNAcβ1,2Manα1,3(GlcNAcβ1,2Manα1,6) Manβ1,4GlcNAcβ1,4GlcNAc), “able to bind”. At immobilized GNA, the “KD, immobilized GNA” value is on record as “not to GNA”.

On to “GNA: mannose-specific tetrameric plant lectin of 50 kDa from snowdrop (Galanthus nivalis) bulbs”, for which the EC50 was 0.046 µM in test [1]; 0.006 ± 0.005 µM in [2]; 0.84 µM in [3]; 0.04 ± 0.01 µM in test [4]; 0.007 ± 0.001 µM with HIV-1(IIIB); 0.13 µM in the test on HIV-1(BaL) (Clade B). Besides, the EC50 in the test with HIV-2(ROD) turned out to be 0.008 ± 0.001 µM; in [6] it was 0.062 ± 0.064 µM. For the same compound, in [5], the “EC50 Clade A/E, ID12” value was determined as 0.38 µM.

Broadly, the EC50 is the concentration at which the effect is half-maximal.
